Values of other authors as cited in US9459187B2, “Blood collection device containing lysophospholipase inhibitor” (Becton, Dickinson and Company, priority 2011, dated 2016).

Legend:
[1] = target: acetylcholinesterase (AChE) (Homo sapiens, UniProt P22303); details: read-out: Ki for AChE
acetylcholinesterase (AChE), sequence (P22303 32-614, species assumed): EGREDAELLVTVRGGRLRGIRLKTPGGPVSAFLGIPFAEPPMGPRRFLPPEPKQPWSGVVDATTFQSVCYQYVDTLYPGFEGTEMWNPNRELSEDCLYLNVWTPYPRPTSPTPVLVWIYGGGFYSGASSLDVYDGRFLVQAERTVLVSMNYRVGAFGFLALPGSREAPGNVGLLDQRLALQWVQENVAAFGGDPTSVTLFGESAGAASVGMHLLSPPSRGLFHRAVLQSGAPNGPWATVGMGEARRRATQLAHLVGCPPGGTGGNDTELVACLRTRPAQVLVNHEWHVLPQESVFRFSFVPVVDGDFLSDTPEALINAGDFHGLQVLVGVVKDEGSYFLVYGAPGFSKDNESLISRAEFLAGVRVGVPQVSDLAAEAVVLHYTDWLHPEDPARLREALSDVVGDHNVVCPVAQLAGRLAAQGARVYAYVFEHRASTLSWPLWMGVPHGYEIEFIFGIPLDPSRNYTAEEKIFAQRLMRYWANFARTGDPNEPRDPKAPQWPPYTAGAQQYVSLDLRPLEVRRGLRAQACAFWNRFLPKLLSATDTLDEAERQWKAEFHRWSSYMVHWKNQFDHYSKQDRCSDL

Row | Molecule | half-life in circulation | Ki [1] [nM]
1 | GIP(1-42) | about 5 minutes | –
2 | glucagon: 29-amino acid peptide involved in carbohydrate metabolism | 8 to 18 min | –
3 | ghrelin: 28-amino acid peptide having the sequence NH2-GSSFLSPEHQRVQQRKESKKPPAKLQPR-COOH (H-GSSFLSPEHQRVQQRKESKKPPAKLQPR-OH; ends and bridges not checked) | about 30 minutes | –
4 | CCC1=CC2Cc3nc4cc(Cl)ccc4c(N)c3[C@H](C1)C2 [Huprine X, (1S)-7-chloro-15-ethyl-10-azatetracyclo[11.3.1.0^{2,11}.0^{4,9}]heptadeca-2(11),3,5,7,9,14-hexaen-3-amine] | – | 0.026
